Reference: patent publication US12419952B2, “Saponin conjugate and vaccine or pharmaceutical composition comprising the same” (priority 2019, dated 2025)

Columns and labels:
[1] = system: E.G7-OVA (OVA-expressing EL4 lymphoma) tumors; assay: Tumor challenge: OVA vaccine with adjuvant in E.G7-OVA tumor bearing mice; format: in vivo, C57BL/6 mice; conditions: Days 7, 14; for tumor growth suppression compared with the control group (PBS): 100 μg OVA with or without 50 μg adjuvant
Protocol: Female C57BL/6 mice 6-8 weeks of age obtained from NLAC Taiwan. Mice were injected s.c. with 200 μL of 1.5*10^6 E. G7-OVA (OVA-expressing EL4 lymphoma) cells in PBS. Tumor volumes were measured at regular intervals using a caliper and calculated by the following formula: tumor volume (mm^3)=(long diameter)*(short diameter)^2*0.52. When the average tumor volume reached […] (day 7), 100 μL of 100 μg OVA in PBS with or without 50 μg compound 56, alum, Qs-21 and GPI0100 was injected s.c. around the tumor. PBS (200 μL) was used as a control.
A mouse-vaccination model was applied with an antigen OVA to evaluate anti-tumor efficacy. […] The evaluation of compound 56, and positive control groups (alum, Qs-21 and GPI-0100) anti-tumor efficacy were analyzed by caliper.

[2] = system: PEK antigen (PE-E7-K3)-specific cytokine-secreting splenocytes; assay: ELISpot of IFNγ and IL-2 production by splenocytes of mice vaccinated with PEK antigen plus saponin adjuvant; format: in vivo, C57BL/6 mice; conditions: 50 μg saponin + PEK 100 μg, s.c.; splenocytes one week after third dose
[3] = system: memory T cells (low CD62L, high CD44); assay: Flow cytometric analysis of memory T cells (CD62L low, CD44 high) in splenocytes of vaccinated mice; format: in vivo, C57BL/6 mice; conditions: one week post-third dose
Protocol: C57BL/6 mice were obtained from NLAC Taiwan. Mice between 4 and 8 weeks of age were vaccinated with 100 μL via the subcutaneous (SC) route and one dose per week for three weeks. Mice was sacrificed one week after the third vaccination, serum and splenocytes were harvested.
Spleen tissue was isolated from mice and processed into single cell suspensions using PP micro centrifuge sample pestle. Splenocytes were seeding on 6 well plate at 2×10^7/2 mL, cultivation for 2 h in a CO2 incubator. After 2 h, stimulate with or without E7-peptide for 2 hours at 37° C., then treat cell with protein transport inhibitor Monensin (Invitrogen, Cat. no. 00-4505-51) and Brefeldin (Invitrogen, Cat. no. 00-4506-51) for 4 hours at 37° C. Afterward, cells were harvest then washed twice with PBS and then stained for surface CD3 (BioLegend, Cat. no. 100222), CD4 (BioLegend, Cat. no. 100540), CD8 (Invitrogen, Cat. no. 11-0081-86), CD44 (BioLegend, Cat. no. 103008), CD62L (BioLegend, Cat. no. 104412) for 30 minutes at 4° C. After washing, cells were fixed for 30 minutes at room temperature using IC fixation buffer (Invitrogen, Cat. no. 00-8222-49), then cells were washed in permeabilization buffer (Invitrogen, Cat. no. 00-8333-56) and stained with IFNγ antibody (Invitrogen, Cat. no. 48-7311-82), IL-2 antibody (Invitrogen, Cat. no. 25-7021-82) and TNFα antibody (Invitrogen, Cat. no. 48-7321-82). One point five million cells events were acquired on the Backman Coulter Gallions. Flow data were analyzed using Kaluza software (ver. 1.2). Populations were first gated on viable mononuclear cell using forward and side scatter, then gated on CD3^+/CD4^+ or CD3^+/CD8^+ T cells. Next, sub-gated CD62L^−/CD44^+ memory T cells. Subsequently, sub-gated on either CD4^+/IFNγ, CD8^+/IFNγ^+, CD4^+/IL-2^+, CD8^+/IL-2^+, CD4/TNFα^+ and CD8^+/TNFα^+ double-positive cells.
Two adhesion molecules associated with differentiating naive and activated/memory T cells are CD62L (L-selectin) and CD44 (H-CAM). […] Flow-cytometric analysis (individual mice) of T-cells as frequency of viable CD8^+ or CD4^+ splenocytes expressing IFN-γ, TNF-α, or IL-2. Cytokine positivity was determined.

SARS-CoV-2 spike protein = assay: ELISA of serum SARS-CoV-2-specific IgG after vaccination with spike protein and adjuvant; format: in vivo, C57BL/6 mice
Female BALB/c mice = assay: Acute toxicity with increased dose of saponin (survival, weight change, spleen and hepato somatic index); format: in vivo
Description: FIG. 8 (A) The percentage of median weight change of mice in 5 days. The values are presented as means±S.E.M. (n=5). (B) Hepato somatic index and (C) Spleen somatic index. The values are presented as means±S.E.M. (n=5). The percentage of median weight change of mice which was received increased dose of saponin adjuvant 56 was all less than 5%. The spleen somatic index and hepato somatic index in all experimental group were no change with compare to control group.
Acute toxicity was examined with increased dose of saponin 56 form 100 μg to 1000 μg. The result was presented as the number of surviving animal per group of 5 mice (Female BALB/c mice, 9 weeks) in 7 days. […] (FIG. 8)
The results represent in FIG. 8. […] The spleen somatic index and hepato somatic index in all experimental group were no change with compare to control group.

PR8 virus = assay: Influenza challenge: NP peptide vaccine with compound 56, then live PR8 virus infection; format: in vivo, C57BL/6 mice; conditions: NPI/II plus compound 56 (50 μg s.c. or 30 μg i.n.); two vaccinations; 110 PFU PR8
Protocol: Female C57BL/6 mice 6-8 weeks of age were immunized through either s.c. injection with 100p of vaccines or the intranasal route with 30 μl of vaccines. All vaccine liquids were freshly prepared and diluted with 0.5% Tween 20 PBS. Vaccines used for the subcutaneous injection contained immunogens NP366-374/NP311-325 peptides, alone or combined with compound 56 ([…]). Vaccines used for the i.n. route contained immunogens alone or with compound 56 (30 μg). After two times vaccination, mice were infected with 110 plaque-forming units (PFU) of live PR8 virus by intronasal.
A mouse-vaccination model was applied with an antigen […] to evaluate anti-influenza efficacy. Five mice per group were immunized two times with compound 56 and NPI/II. After two times vaccination, mice were infected with 110 plaque-forming units (PFU) of live PR8 virus by intronasal.

Compound	tumor growth suppression compared with the control group (PBS) [1]	inducing IL-2 (ELISpot) [2]	secretion of cytokines IFNγ (ELISpot) compared with GPI0100 [2]	cytokine positive CD4+ T-cells [3]	frequency of CD8+ T-cells positive for IFN-γ or TNF-α as compared to mice vaccinated with GPI-0100 [3]	other results
OVA: antigen OVA used in the tumor vaccination model	slight tumor growth suppression at first	–	–	–	–	–
CC1O[C@@H](OC(=O)[C@]23CCC(C)(C)CC2C2=CCC4C5(C)CC[C@H](O[C@@H]6OC(C(=O)NCCCCCCCCc7ccc(Oc8ccccc8)cc7)[C@@H](O)C(O)C6O)C(C)(C=O)C5CCC4(C)[C@]2(C)CC3O)C(O[C@@H]2OC(C)[C@H](O[C@@H]3OC[C@@H](O)C(O)C3O)C(O[C@@H]3OC(CO)[C@@H](O)C(O)C3O)C2O)C(O)[C@H]1O (stereo partly drawn) [Compound 79, 3-O—(N-(8-(4-Phenoxyhenyl)octyl)-β-D-glucopyranosyluronamide)-28-O-(β-D-glucopyranosyl-(1→3)-(β-D-xylopyranosyl-(1-4))-α-L-rhamnopyranosyl-(1→2)-β-D-fucopyranosyl) quillaic ester]	–	moderate	three to four times more	no cytokine positive CD4^+ T-cells were detected	higher frequency	–
CC1O[C@@H](OC(=O)[C@]23CCC(C)(C)CC2C2=CCC4C5(C)CC[C@H](O[C@@H]6OC(C(=O)NCCCCCCCCc7ccc(Oc8ccccc8)cc7)[C@@H](O)C(O)C6O)C(C)(C=O)C5CCC4(C)C2(C)CC3O)C(O[C@@H]2OC(C)[C@H](O[C@@H]3OC[C@@H](O)C(O)C3O)C(O)C2O)C(O)[C@H]1O (stereo partly drawn) [Compound 56, 3-O—(N-(8-(4-Phenoxyhenyl)octyl)-β-D-glucopyranosyluronamide)-28-O-(β-D-xylopyranosyl-(1→4)-α-L-rhamnopyranosyl-(1→2)-β-D-fucopyranosyl) quillaic ester]	significant tumor growth suppression effect	moderate	three to four times more	no cytokine positive CD4^+ T-cells were detected	higher frequency	increase of antibody titer (SARS-CoV-2 spike protein; SARS-CoV-2 (2 μg) + Compound 56 (50 μg) vs SARS-CoV-2 (10 μg) + Alum (10 μg), only 20% of antigen): 1000 fold; level of SARS-CoV-2-specific IgG antibody production (SARS-CoV-2 spike protein; SARS-CoV-2 (2 μg) + Compound 56 (50 μg), s.c.): highest level of antibody production; abnormality on activity and diet behavior (Female BALB/c mice; 100 μg to 1000 μg, 7 days): no obvious abnormality; survival in acute toxicity test (Female BALB/c mice; 100 μg to 1000 μg, 7 days): all of the mice were survive; number of surviving animal per group of 5 mice (Female BALB/c mice; Dose 100 μg, 7 days): 5/5; number of surviving animal per group of 5 mice (Female BALB/c mice; Dose 200 μg, 7 days): 5/5; number of surviving animal per group of 5 mice (Female BALB/c mice; Dose 500 μg, 7 days): 5/5; number of surviving animal per group of 5 mice (Female BALB/c mice; Dose 1000 μg, 7 days): 5/5; hepato somatic index compared to control group (Female BALB/c mice; all experimental groups, n=5): no change; spleen somatic index compared to control group (Female BALB/c mice; all experimental groups, n=5): no change; percentage of median weight change of mice (Female BALB/c mice; increased dose of saponin adjuvant, 5 days, n=5): less than 5%; survival rate of tumor bearing mice ([1]; 100 μg OVA + 50 μg adjuvant): highest survival rate; survival rate following PR8 infection compared to NP I/II peptides alone (PR8 virus): higher survival rate
CC1O[C@@H](OC(=O)[C@]23CCC(C)(C)CC2C2=CCC4C5(C)CC[C@H](O[C@@H]6OC(C(=O)NCCCCCCCCc7ccc(N8CCOCC8)cc7)[C@@H](O)C(O)C6O)C(C)(C=O)C5CCC4(C)[C@]2(C)CC3O)C(O[C@@H]2OC(C)[C@H](O[C@@H]3OC[C@@H](O)C(O)C3O)C(O)C2O)C(O)[C@H]1O (stereo partly drawn) [Compound 62, 3-O—(N-(8-(4-morpholinophen-1-yl)octyl)-β-D-glucopyranosyluronamide)-28-O-(β-D-xylopyranosyl-(1→4)-α-L-rhamnopyranosyl-(1-2)-β-D-fucopyranosyl) quillaic ester]	–	–	–	no cytokine positive CD4^+ T-cells were detected	higher frequency	–
Alum [reference compound]	slight tumor growth suppression at first	–	–	–	–	–
Qs-21 [reference compound]	significant tumor growth suppression effect	–	–	–	–	–
